Laboratory results: US20050203127A1, “2-(Phenyl)-2h-pyrazole-3-carboxylic acid-n-4-(thioxo-heterocyclyl)-phenyl-amide derivatives and corresponding imino-heterocyclyl derivatives and relates compounds for use as inhibitors of the coagulation factors xa and/or viia for treating thromboses” (priority 2002, published 2005)

How the values were obtained:
[1] = molecular target: factor Xa (Homo sapiens, UniProt P00742); experiment: Factor Xa inhibition (FXa-IC50); type: biochemical
Description: The inhibition of factor Xa by the compounds according to the invention and the measurement of the anticoagulant and antithrombotic activity can be determined by conventional in-vitro or in-vivo methods. A suitable method is described, for example, by J. Hauptmann et al. in Thrombosis and Haemostasis 1990, 63, 220-223.
The inhibition of factor Xa can be measured, for example by the method of T. Hara et al. in Thromb. Haemostas. 1994, 71, 314-319.

[2] = molecular target: TF/FVIIa (Homo sapiens, UniProt P08709); experiment: TF/factor VIIa inhibition (TF/FVIIa-IC50); type: biochemical
Sequence of TF/FVIIa (P08709 213-466 limits assumed): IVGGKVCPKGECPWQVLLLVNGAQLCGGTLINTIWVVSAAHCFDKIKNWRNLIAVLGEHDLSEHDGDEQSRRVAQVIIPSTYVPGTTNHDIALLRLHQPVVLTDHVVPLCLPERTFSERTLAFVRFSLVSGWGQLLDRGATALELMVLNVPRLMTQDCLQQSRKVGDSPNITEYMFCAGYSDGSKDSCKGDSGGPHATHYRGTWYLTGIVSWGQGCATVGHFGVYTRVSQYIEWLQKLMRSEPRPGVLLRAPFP
Sequence of TF/FVIIa (P08709 61-212 limits assumed): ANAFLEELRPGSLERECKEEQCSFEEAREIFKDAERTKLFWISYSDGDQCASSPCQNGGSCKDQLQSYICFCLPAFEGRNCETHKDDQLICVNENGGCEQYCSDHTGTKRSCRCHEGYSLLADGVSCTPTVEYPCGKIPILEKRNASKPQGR
Sequence of TF/FVIIa (P13726 33-295 partner): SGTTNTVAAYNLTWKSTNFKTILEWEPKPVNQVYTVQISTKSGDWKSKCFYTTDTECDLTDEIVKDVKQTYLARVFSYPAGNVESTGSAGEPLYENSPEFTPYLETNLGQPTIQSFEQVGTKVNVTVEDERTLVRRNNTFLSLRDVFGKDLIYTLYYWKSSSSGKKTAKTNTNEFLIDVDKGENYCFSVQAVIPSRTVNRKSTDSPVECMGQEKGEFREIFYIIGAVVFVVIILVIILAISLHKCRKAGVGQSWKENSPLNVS
Description: The inhibition of factor VIIa by the compounds according to the invention and the measurement of the anticoagulant and antithrombotic activity can be determined by conventional in-vitro or in-vivo methods. A conventional method for the measurement of the inhibition of factor VIIa is described, for example, by H. F. Ronning et al. in Thrombosis Research 1996, 84, 73-81.

Sequence of factor Xa (P00742 235-488 limits assumed): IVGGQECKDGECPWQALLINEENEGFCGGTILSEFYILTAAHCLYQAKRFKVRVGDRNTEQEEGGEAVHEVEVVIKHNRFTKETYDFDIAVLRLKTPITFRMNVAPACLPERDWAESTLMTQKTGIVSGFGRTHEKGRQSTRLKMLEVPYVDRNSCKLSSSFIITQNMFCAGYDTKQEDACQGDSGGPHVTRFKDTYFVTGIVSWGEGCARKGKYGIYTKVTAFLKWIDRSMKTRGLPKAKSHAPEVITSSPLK
Sequence of factor Xa (P00742 41-179 limits assumed): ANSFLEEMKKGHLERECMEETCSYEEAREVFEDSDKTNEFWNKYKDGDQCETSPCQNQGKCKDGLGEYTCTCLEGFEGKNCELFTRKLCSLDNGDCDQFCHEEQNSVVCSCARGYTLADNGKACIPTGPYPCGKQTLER

Compound | IC50 [1] [nM] | IC50 [2] [nM]
N=C1CCCN1c1ccc(NC(=O)c2cc(C(F)(F)F)nn2-c2cccc(CN)c2)cc1 [AA, N-[4-(2-iminopyrrolidin-1-yl)phenyl]-2-(3-aminomethylphenyl)-5-trifluoromethyl-2H-pyrazole-3-carboxamide] | 9.6 | 23
NC(=O)c1cccc(-n2nc(C(F)(F)F)cc2C(=O)Nc2ccc(N3CCCC3=S)c(Cl)c2)c1 [BB, N-[3-chloro-4-(2-thioxopyrrolidin-1-yl)phenyl]-2-(3-aminocarbonylphenyl)-5-trifluoromethyl-2H-pyrazole-3-carboxamide] | 330 | 180
N#CN=C1NCCN1c1ccc(NC(=O)c2cc(C(F)(F)F)nn2-c2cccc(C(N)=O)c2)cc1 [CA, N-[4-(2-cyanoiminoimidazolidin-1-yl)phenyl]-2-(3-aminocarbonylphenyl)-5-trifluoromethyl-2H-pyrazole-3-carboxamide] | 200 | 69
CCc1nn(-c2ccc(NC(=O)c3cc(C(F)(F)F)nn3-c3cccc(C(N)=O)c3)cc2)c(=N)s1 [CB, N-[4-(2-imino-5-ethyl-3H-1,3,4-thiadiazol-3-yl)phenyl]-2-(3-aminocarbonylphenyl)-5-trifluoromethyl-2H-pyrazole-3-carboxamide] | 92 | 150
